Reference: patent US6890708B2, “Method for improving the quality of sperm for artificial insemination of animals” (priority 2000, dated 2005)

Key:
Format in all cases: cell-based, pig
boar spermatozoa [1] = experiment: Sperm viability in vitro (motility, acrosome morphology), Example I; settings: Exp. 1
Experimental: Aliquots of 80 μl of the PMN suspension (see, PMN isolation and preparation of PMNs) in TM or TM-s, with either intact or inactivated complement, were transferred to a 96-well polystyrene microtest plate. To each well, 20 μl of sperm suspension (see, preparation of semen samples) was added and the microtest plate was placed in a humidified incubator at 38° C. with 5% CO2 in air. […] The samples were incubated with gentle swirling on a test plate shaker. After 15, 30, 45, 60 or 90 min., samples were quantitatively transferred into tubes containing an equal volume of 40 mg ml^−1 heparin (Sigma) in PBS. The heparin facilitates dissociation of agglutinated PMNs. The samples were thoroughly mixed, left for 15 min., and mixed again. Subsamples of 75 μl were fixed by addition of 25 μl of 2% (v/v) glutaraldehyde (Fluka, Brunschwig chemie, Amsterdam, The Netherlands) in PBS. “Blank” samples, i.e., sperm without PMNs (80 μl TM-s mixed with 20 μl sperm suspension), were incubated in parallel to monitor sperm survival during the treatment. “Reference” samples, i.e., frozen-thawed (killed) semen, were incubated in parallel with the PMNs as a reference for the phagocytotic activity of the PMNs. The frozen-thawed semen was taken from a large stock of semen from one ejaculate and washed 3 times in PBS prior to use.
For evaluation of phagocytosis, wet mounts of the fixed samples were examined with a combination of phase-contrast and fluorescence microscopy (Olympus BH2, Tokyo, Japan) at 400× magnification. The mounts enabled observation and counting of fluorescently labeled spermatozoa inside and outside the phagocytes. By focusing at different levels in the mount, spermatozoa that were located above or below the PMN could be distinguished from those that were phagocytosed. […] Two hundred spermatozoa were evaluated and classified as inside or outside the PMN (i.e., phagocytosed or not phagocytosed). The same fixed mounts were used to assess the acrosome morphology of the non-phagocytosed spermatozoa at the moment of fixation. One hundred cells were classified using phase-contrast microscopy at 400× magnification, as NAR (normal apical ridge), NAR' (slightly altered normal apical ridge), DAR (damaged apical ridge), MAR (missing apical ridge) and LAC (loose acrosomal cap), as described by Pursel et al. (Pursel V G, Schulman L L and Johnson L A, 1978, Distribution and morphology of fresh and frozen-thawed sperm in the reproductive tract of gilts after insemination Biology of Reproduction 19 69-76.)

boar spermatozoa [2] = experiment: as above; settings: Exp. 1; after adding active compound and pre-incubation 30 min. at 38° C.
[3] = system: Polymorphonuclear Neutrophils (PMN); experiment: In vitro phagocytosis of boar sperm by PMN (phagocytosis assay); settings: for % of phagocytosed sperm: Exp. 1, preincubated 30 min. at 38° C.
Experimental: Tyrode's medium was used as described as “standard Tyrode's medium” in […] et al. ([…], Harrison, R A P, Miller, N G A, Topper, E K, and Woelders, H, 1998, Enhanced Binding of Zona Pellucida Proteins to the Acrosomal Region of Intact Boar Spermatozoa in Response to Fertilizing Conditions: A Flow Cytometric Study. […] Serum was prepared from blood collected from 11 primiparous sows, pooled, and frozen in aliquots at -80° C. Per experiment, 20 ml peripheral blood of a single Dutch Landrace sow (each experiment a different sow) was collected in heparinized vacutainers (Venoject, Omnilabo, Breda, The Netherlands). The peripheral blood was subsequently diluted with an equal volume of phosphate buffered saline (PBS). […] The supernatant, including the mononuclear cells at the interface, was removed. The pellet was resuspended in 2 ml of ice-cold distilled water to lyse the erythrocytes. […] The PMNs were pelleted by centrifugation for 10 min at 400×g and the lysis procedure was repeated. […] All cell suspensions were pooled together, mixed well, and subjected to centrifugation. The PMN were resuspended in TM-s with inactivated complement, and the cell concentration was determined using a hemocytometer. The PMN preparation was stored overnight at 4° C. […] The viability, assessed by trypan blue exclusion, was >98%. Semen was obtained from Dutch A.I. stations. Per experiment, semen was used from a single Yorkshire breeding boar (each experiment a different boar). At the AI-station, the semen was diluted to a concentration of approximately 30×10^6 cells/ml in Beltsville Thawing Solution (BTS) (Johnson et al., 1988). The diluted semen was stored at 17° C. for up to 48 hours, until the diluted semen sample was used. […] Aliquots of 80 μl of the PMN suspension (see, PMN isolation and preparation of PMNs) in TM or TM-s, with either intact or inactivated complement, were transferred to a 96-well polystyrene microtest plate. […] The samples were incubated with gentle swirling on a test plate shaker. […] The heparin facilitates dissociation of agglutinated PMNs. The samples were thoroughly mixed, left for 15 min., and mixed again. […] The frozen-thawed semen was taken from a large stock of semen from one ejaculate and washed 3 times in PBS prior to use. […] The mounts enabled observation and counting of fluorescently labeled spermatozoa inside and outside the phagocytes. By focusing at different levels in the mount, spermatozoa that were located above or below the PMN could be distinguished from those that were phagocytosed. In many PMNs that had ingested a spermatozoon, the presence of the sperm nucleus or tail caused a conspicuous change of the shape of the PMN. Two hundred spermatozoa were evaluated and classified as inside or outside the PMN (i.e., phagocytosed or not phagocytosed). The same fixed mounts were used to assess the acrosome morphology of the non-phagocytosed spermatozoa at the moment of fixation.

[4] = after adding active compound and pre-incubation 30 min. at 38° C.
[5] = blank samples without PMN, (2x), phagocytosis time 30 min.
[6] = blank samples without PMN, preincubated 30 min. at 38° C., phagocytosis time 30 min.

CCCC(=O)Nc1ncnc2c1ncn2[C@@H]1O[C@@H]2COP(=O)(O)O[C@H]2[C@H]1OC(=O)CCC [Db-cAMP, dibutyryl-cAMP]
% DAR (boar spermatozoa [1]; [4]): 23% | % LAC (boar spermatozoa [1]; [4]): 08% | % MAR (boar spermatozoa [1]; [4]): 02% | % NAR (boar spermatozoa [1]; [4]): 67% | % LAC (boar spermatozoa [1]; [5]): 08% | % MAR (second value of NAR-MAR-MAR-LAC) (boar spermatozoa [1]; [5]): 36% | % MAR (third value of NAR-MAR-MAR-LAC) (boar spermatozoa [1]; [5]): 02% | % NAR (boar spermatozoa [1]; [5]): 54% | % LAC (boar spermatozoa [1]; [6]): 06% | % MAR (second value of NAR-MAR-MAR-LAC) (boar spermatozoa [1]; [6]): 36% | % MAR (third value of NAR-MAR-MAR-LAC) (boar spermatozoa [1]; [6]): 02% | % NAR (boar spermatozoa [1]; [6]): 56% | % motile sperm (boar spermatozoa [2]): 60% | % of phagocytosed sperm ([3]; 0.1 mM, phagocytosis time 15 min): 35% | % of phagocytosed sperm ([3]; 0.1 mM, phagocytosis time 30 min): 59% | % of phagocytosed sperm ([3]; 0.1 mM, phagocytosis time 60 min): 60% | % of phagocytosed sperm ([3]; 0.1 mM, phagocytosis time 90 min): 65% | % of phagocytosed sperm ([3]; 0.2 mM, phagocytosis time 15 min): 47% | % of phagocytosed sperm ([3]; 0.2 mM, phagocytosis time 30 min): 47% | % of phagocytosed sperm ([3]; 0.2 mM, phagocytosis time 60 min): 58% | % of phagocytosed sperm ([3]; 0.2 mM, phagocytosis time 90 min): 54%

O=C(O)CN(CCN(CC(=O)O)CC(=O)O)CC(=O)O [EDTA]
phagocytosis of sperm by PMN in vitro, in words [3]: reduce phagocytosis of sperm in vitro

Nc1ncnc2c1ncn2[C@@H]1O[C@@H]2COP(=O)(O)O[C@H]2[C@H]1O [cAMP, cyclic Adenosine MonoPhosphate]
phagocytosis of sperm by PMN in vitro, in words [3]: inhibits the phagocytosis of sperm in vitro

heparin
phagocytosis of sperm by PMN in vitro, in words [3]: inhibited strongly
